Data from US20060069132A1, “Azolecarboxamide herbicides” (priority 2004, published 2006).

Key:
[1] = test system: pigweed; assay: Test B pre-/postemergence herbicide test; type: in vivo, Amaranthus retroflexus; conditions: for Pigweed plant response rating: postemergence
In short: (§1)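 Response was scored visually 13 to 15 days after treatment against untreated greenhouse controls, 0 meaning no effect and 100 complete control. Formulations (solvent mixture plus surfactant) went onto soil after planting, onto foliage of 1- to 4-leaf plants, and onto 2-leaf plants in a flooded paddy set including rice and barnyardgrass.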

[2] = test system: corn; assay: Test B pre-/postemergence herbicide test; type: in vivo, Zea mays; conditions: for Corn plant response rating: postemergence
In short: as §1

[3] = test system: wild oat; assay: Test B postemergence herbicide test; type: in vivo, Avena fatua; conditions: postemergence
In short: (§2)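 Each value is a visual 0–100 response rating taken against controls 13 to 15 days after treatment in the greenhouse. Plants received formulated chemical postemergence at the 1- to 4-leaf stage or, in flooded paddy, at the 2-leaf stage.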

[4] = test system: rice; assay: Test B pre-/postemergence herbicide test; type: in vivo, Oryza sativa; conditions: 0 = no effect, 100 = complete control, preemergence
In short: as §1

[5] = test system: giant foxtail; assay: Test B pre-/postemergence herbicide test; type: in vivo, Setaria faberi; conditions: for Foxtail, Giant plant response rating: postemergence
In short: as §1

[6] = test system: smallflower umbrella sedge; assay: Test C flooded paddy test; type: in vivo, Cyperus difformis
[7] = test system: wheat; assay: Test B postemergence herbicide test; type: in vivo, Triticum aestivum; parameters: key to Wheat plant response rating: 0 = no effect, 100 = complete control; conditions: postemergence
In short: as §2

[8] = test system: large crabgrass; assay: Test B pre-/postemergence herbicide test; type: in vivo, Digitaria sanguinalis; conditions: for Crabgrass, Large plant response rating: postemergence
In short: as §1

[9] = test system: morningglory; assay: Test B pre-/postemergence herbicide test; type: in vivo, Ipomoea coccinea; conditions: for Morningglory plant response rating: postemergence
In short: (§3)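 Seeds were planted and treated preemergence with compounds formulated in a non-phytotoxic solvent mixture containing surfactant, while plants at the 1- to 4-leaf stage (2 to 18 cm) received postemergence sprays. Flooded paddy plants were grown to the 2-leaf stage. After 13 to 15 days in a greenhouse, injury was visually rated 0–100 against untreated controls.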

[10] = test system: rice; assay: Test B flooded paddy test; type: in vivo, Oryza sativa; conditions: 1000 g ai/ha, scale 0 to 100 (0 no effect, 100 complete control)
In short: (§4)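 Postemergence plants were sprayed with formulated test chemicals at 2 to 18 cm height (1- to 4-leaf stage); paddy species were grown to the 2-leaf stage. After 13 to 15 days in a greenhouse, injury was rated visually against untreated controls on a 0–100 scale (0 = no effect, 100 = complete control).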

[11] = test system: rice; assay: Test C flooded paddy test; type: in vivo, Oryza sativa
In short: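 Plants were grown to the 1- to 4-leaf stage (2–18 cm) and then treated postemergence, or grown to the 2-leaf stage for the flooded paddy test. They were held in a greenhouse for 12 to 14 days and then scored by eye against controls, where 0 is no effect and 100 is complete control.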

[12] = test system: cocklebur; assay: Test B pre-/postemergence herbicide test; type: in vivo, Xanthium strumarium; conditions: for Cocklebur plant response rating: postemergence, scale 0 (no effect) to 100 (complete control)
In short: as §3

[13] = test system: barnyardgrass; assay: Test C flooded paddy test; type: in vivo, Echinochloa crus-galli
In short: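 Ratings (0 = no effect, 100 = complete control) come from visual comparison with untreated plants after 12 to 14 days in the greenhouse. Treatment was postemergence at the 1- to 4-leaf stage (2–18 cm), or at the 2-leaf stage for the flooded paddy barnyardgrass.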

[14] = test system: ducksalad; assay: Test C flooded paddy test; type: in vivo, Heteranthera limosa
[15] = test system: lambsquarters; assay: Test B pre-/postemergence herbicide test; type: in vivo, Chenopodium album; conditions: for Lambsquarters plant response rating: postemergence
In short: as §1

[16] = test system: blackgrass; assay: Test B postemergence herbicide test; type: in vivo, Alopecurus myosuroides; conditions: postemergence, visual rating, scale 0 (no effect) to 100 (complete control)
In short: as §4

[17] = test system: velvetleaf; assay: Test B pre-/postemergence herbicide test; type: in vivo, Abutilon theophrasti; conditions: for Velvetleaf plant response rating: postemergence
In short: as §1

[18] = test system: Surinam grass; assay: Test B pre-/postemergence herbicide test; type: in vivo, Urochloa decumbens; conditions: for Surinam Grass plant response rating: postemergence
In short: as §1

[19] = test system: small flower umbrella sedge; assay: Test B flooded paddy test; type: in vivo, Cyperus difformis; conditions: 1000 g ai/ha, scale 0 to 100 (0 no effect, 100 complete control)
In short: as §4

[20] = test system: barnyardgrass; assay: Test B pre-/postemergence herbicide test; type: in vivo, Echinochloa crus-galli; conditions: for Barnyardgrass plant response rating: postemergence, scale 0 (no effect) to 100 (complete control)
In short: as §3

[21] = test system: barnyardgrass; assay: Test B flooded paddy test; type: in vivo, Echinochloa crus-galli; conditions: 1000 g ai/ha, scale 0 to 100 (0 no effect, 100 complete control)
In short: as §4

[22] = test system: ducksalad; assay: Test B flooded paddy test; type: in vivo, Heteranthera limosa; conditions: 1000 g ai/ha, scale 0 to 100 (0 no effect, 100 complete control)
In short: as §4

[23] = 125 g ai/ha, 0 = no effect, 100 = complete control, preemergence
[24] = 500 g ai/ha, visual rating, 0 = no effect, 100 = complete control, preemergence
[25] = 125 g ai/ha, visual rating, scale 0 (no effect) to 100 (complete control)
[26] = 500 g ai/ha, scale 0 to 100, 0 is no effect, 100 is complete control
[27] = 125 g ai/ha, scale 0 to 100 (0 no effect, 100 complete control)
[28] = 250 g ai/ha, scale of 0 to 100, 0 is no effect, 100 is complete control
[29] = 500 g ai/ha, visual rating after 12 to 14 days, scale 0 to 100 (0 no effect, 100 complete control)

CCNC(=O)c1cncc(NC(=O)c2cc(C(C)(C)C)nn2CC)c1 [Compound 259]
Pigweed plant response rating (0 to 100 scale) [1, 23]: 0
Plant response rating, Pigweed [1, 24]: 100
Pigweed plant response rating [1, 25]: 30
Pigweed plant response rating [1, 26]: 90
Corn plant response rating (0 to 100 scale) [2, 23]: 0
Plant response rating, Corn [2, 24]: 0
Corn plant response rating [2, 25]: 10
Corn plant response rating [2, 26]: 20
Oat, Wild plant response rating [3, 25]: 10
Oat, Wild plant response rating [3, 26]: 20
Rice plant response rating (0 to 100 scale) ([4]; 125 g ai/ha): 0
Plant response rating, Rice ([4]; 500 g ai/ha, visual rating): 0
Foxtail, Giant plant response rating (0 to 100 scale) [5, 23]: 0
Plant response rating, Foxtail, Giant [5, 24]: 70
Foxtail, Giant plant response rating [5, 25]: 0
Foxtail, Giant plant response rating [5, 26]: 0
Sedge, Umbrella plant response rating ([6]; 62 g ai/ha, scale 0 to 100): 0
Sedge, Umbrella plant response rating [6, 27]: 35
Sedge, Umbrella plant response rating [6, 28]: 55
Plant response rating, Sedge, Umbrella [6, 29]: 70
Wheat plant response rating [7, 25]: 10
Wheat plant response rating [7, 26]: 20
Crabgrass, Large plant response rating (0 to 100 scale) [8, 23]: 0
Plant response rating, Crabgrass, Large [8, 24]: 50
Crabgrass, Large plant response rating [8, 25]: 0
Crabgrass, Large plant response rating [8, 26]: 20
Morningglory plant response rating (0 to 100 scale) [9, 23]: 0
Plant response rating, Morningglory [9, 24]: 90
Morningglory plant response rating [9, 25]: 0
Morningglory plant response rating [9, 26]: 0
Rice plant response rating [10]: 70
Rice plant response rating ([11]; 62 g ai/ha, scale 0 to 100): 0
Rice plant response rating [11, 27]: 0
Rice plant response rating [11, 28]: 0
Plant response rating, Rice [11, 29]: 0
Cocklebur plant response rating (0 to 100 scale) [12, 23]: 0
Plant response rating, Cocklebur [12, 24]: 0
Cocklebur plant response rating ([12]; 125 g ai/ha, visual rating): 0
Cocklebur plant response rating ([12]; 500 g ai/ha, visual rating): 20
Barnyardgrass plant response rating ([13]; 62 g ai/ha, scale 0 to 100 (0 no effect, 100 complete control)): 0
Barnyardgrass plant response rating [13, 27]: 0
Barnyardgrass plant response rating [13, 28]: 0
Plant response rating, Barnyardgrass [13, 29]: 0
Ducksalad plant response rating ([14]; 62 g ai/ha, scale 0 to 100): 0
Ducksalad plant response rating [14, 27]: 60
Ducksalad plant response rating [14, 28]: 65
Plant response rating, Ducksalad [14, 29]: 75
Lambsquarters plant response rating (0 to 100 scale) [15, 23]: 0
Lambsquarters plant response rating [15, 25]: 10
Lambsquarters plant response rating [15, 26]: 30
Blackgrass plant response rating ([16]; 125 g ai/ha): 10
Blackgrass plant response rating ([16]; 500 g ai/ha): 20
Velvetleaf plant response rating (0 to 100 scale) [17, 23]: 0
Plant response rating, Velvetleaf [17, 24]: 0
Velvetleaf plant response rating [17, 25]: 0
Velvetleaf plant response rating [17, 26]: 0
Surinam Grass plant response rating (0 to 100 scale) [18, 23]: 0
Plant response rating, Surinam Grass [18, 24]: 30
Surinam Grass plant response rating [18, 25]: 10
Surinam Grass plant response rating [18, 26]: 20
Sedge, Umbrella plant response rating [19]: 70
Barnyardgrass plant response rating (0 to 100 scale) [20, 23]: 0
Plant response rating, Barnyardgrass [20, 24]: 70
Barnyardgrass plant response rating ([20]; 125 g ai/ha, visual rating): 0
Barnyardgrass plant response rating ([20]; 500 g ai/ha, visual rating): 0
Barnyardgrass plant response rating [21]: 30
Ducksalad plant response rating [22]: 90
